# Legend:
# hypertensive rats = assay: hypotensive activity: blood pressure of hypertensive rats after peroral administration; assay type: in vivo; conditions: Rattus norvegicus, po, read-out: Peroral Dose: lowest dose which results in at least a 15 mm Hg reduction in blood pressure
# Text: The hypotensive activity of the present compounds can be observed by measuring the blood pressure of hypertensive rats following administration of the compounds.
# [1] = toxicity (LD50) measured on mice by peroral administration; conditions: mouse, in vivo, po
# coronary vessels = assay: coronary vessel dilation: rise in oxygen saturation in the coronary sinus in the narcotized, heart-catheterized dog; assay type: in vivo; conditions: intravenous
# Text: They can accordingly be used where either or both of these effects are desired. Thus upon parenteral, oral or sublingual administration, the compounds produce a distinct and long lasting dilation of the coronary vessels which is intensified by a simultaneous nitrite-like effect of reducing the load on the heart. […] The effect on heart metabolism is thus one of energy saving. In addition, the compounds lower the blood pressure of normotonic and hypertonic animals and can thus be used as antihypertensive agents. These properties can be conveniently observed in well known laboratory models. Thus, for example, the coronary vessel dilation effect of the compounds of the invention was compared with the action of Persantin by measuring the rise in oxygen saturation in the coronary sinus in the narcotized, heart-catheterized dog, with the results reported in Table I, below.
# ^1 Dose given in mg/kg. body weight, administered intravenously;
# ^2 O2 rise given as % rise in oxygen saturation;
# ^3 Reversion time given is time in hours for reversion to the initial
smiles,measurement,setting,value
"CCOC(=O)C1=C(C)N(C)C(C)=C(C(=O)OC)C1c1cccc([N+](=O)[O-])c1 (centres unmarked) [Example 1, 1,2,6-trimethyl-4-(3'-nitrophenyl)-1,4-dihydropyridine-3,5-dicarboxylic acid 3-methyl-ester-5-ethyl-ester]",minimal effective dose,hypertensive rats,0.3 mg/kg
same,LD50,[1],3000 mg/kg
"COC(=O)C1=C(C)N(C)C(C)=C(C(=O)OC(C)C)C1c1cccc([N+](=O)[O-])c1 (centres unmarked) [Example 2, 1,2,6-trimethyl-4-(3'-nitrophenyl)-1,4-dihydropyridine-3,5-dicarboxylic acid 3-methyl-ester-5-isopropyl-ester]",O2 % Rise (rise in oxygen saturation in the coronary sinus),coronary vessels; 0.01 mg/kg,31%
same,Reversion time (to the initial value),coronary vessels; 0.01 mg/kg,> 3.5 h
same,minimal effective dose,hypertensive rats,1 mg/kg
same,LD50,[1],3000 mg/kg
"CCOC(=O)C1=C(C)N(C)C(C)=C(C(=O)OC(C)C)C1c1cccc([N+](=O)[O-])c1 (centres unmarked) [Example 3, 1,2,6-trimethyl-4-(3'-nitrophenyl)-1,4-dihydropyridine-3,5-dicarboxylic acid 3-ethyl-ester-5-isopropyl-ester]",O2 % Rise (rise in oxygen saturation in the coronary sinus),coronary vessels; 0.1 mg/kg,39%
same,Reversion time (to the initial value),coronary vessels; 0.1 mg/kg,> 6 h
same,minimal effective dose,hypertensive rats,0.3 mg/kg
same,LD50,[1],3000 mg/kg
"C=CCOC(=O)C1=C(C)N(C)C(C)=C(C(=O)OCC)C1c1ccccc1C#N (centres unmarked) [Example 6, 1,2,6-trimethyl-4-(2'-cyanophenyl)-1,4-dihydropyridine-3,5-dicarboxylic acid 3-ethyl-ester-5-allyl-ester]",O2 % Rise (rise in oxygen saturation in the coronary sinus),coronary vessels; 0.05 mg/kg,39%
same,Reversion time (to the initial value),coronary vessels; 0.05 mg/kg,> 4 h
same,minimal effective dose,hypertensive rats,0.3 mg/kg
"OCCN(CCO)c1nc(N2CCCCC2)c2nc(N(CCO)CCO)nc(N3CCCCC3)c2n1 [Persantin, reference compound]",O2 % Rise (rise in oxygen saturation in the coronary sinus),coronary vessels; 0.3 mg/kg,23%
same,Reversion time (to the initial value),coronary vessels; 0.3 mg/kg,1 to 2 h
same,O2 % Rise (rise in oxygen saturation in the coronary sinus),coronary vessels; 0.4 mg/kg,34%
same,Reversion time (to the initial value),coronary vessels; 0.4 mg/kg,1 to 2 h
